The text below walks through data of patent publication US12187721B2, “Protein tyrosine phosphatase inhibitors” (Array BioPharma Inc., priority 2018, dated 2025).

pIC50: −log10 of the molar value. Read-outs that look alike come from different tables or passages of the source.

For the assay, the target named is T1, full-length SHP2 (His6-tagged SHP2(2-527)) (Homo sapiens, UniProt Q06124).
T1 construct: His6-tagged SHP2(2-527); His6; made in house; host or cells: E. coli
Briefly: SHP2 Enzymatic Assay (fluorescence intensity kinetic assay, DiFMUP hydrolysis). It counts as biochemical. A digest of the protocol:
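1 nM His6-SHP2(2-527), activated by 1 μM bis-phosphopeptide, hydrolysed 50 μM DiFMUP in 25 mM HEPES pH 7.4 with 1 mM DTT, 50 mM KCl and 2% DMSO. DiFMU fluorescence (Ex 355/Em 460 nm) was read kinetically for 15 min at ambient temperature.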

[1] abbreviates: full-length SHP2 with 1 μM activating peptide, 50 μM DiFMUP, single assay or mean of multiple assays, read-out: Biological Example 1 IC50.

T1 sequence (Q06124 2-527): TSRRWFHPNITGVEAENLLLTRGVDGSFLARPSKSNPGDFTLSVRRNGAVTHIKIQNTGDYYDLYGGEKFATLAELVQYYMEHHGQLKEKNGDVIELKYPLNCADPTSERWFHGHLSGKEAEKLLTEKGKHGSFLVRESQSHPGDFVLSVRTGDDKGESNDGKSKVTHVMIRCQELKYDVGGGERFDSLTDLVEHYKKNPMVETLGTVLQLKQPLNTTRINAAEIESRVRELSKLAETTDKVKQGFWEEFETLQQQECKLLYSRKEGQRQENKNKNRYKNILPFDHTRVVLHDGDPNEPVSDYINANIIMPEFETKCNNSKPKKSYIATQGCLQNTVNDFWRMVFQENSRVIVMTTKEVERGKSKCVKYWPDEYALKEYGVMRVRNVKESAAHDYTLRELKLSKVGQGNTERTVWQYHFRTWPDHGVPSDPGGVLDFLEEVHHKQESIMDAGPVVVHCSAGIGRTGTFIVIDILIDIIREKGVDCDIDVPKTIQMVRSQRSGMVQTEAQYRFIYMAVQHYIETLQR

One may read the pIC50 as −log10 of the IC50, conventionally taken in molar units. Regarding `Cc1c[nH]c2nccc(Sc3ccc4nc(N5CCC6(CC5)CO[C@@H](C)[C@H]6N)cnc4n3)c12` [Example 139, (3S,4S)-3-methyl-8-(6-((3-methyl-1H-pyrrolo[2,3-b]pyridin-4-yl)thio)pyrido[2,3-b]pyrazin-2-yl)-2-oxa-8-azaspiro[4.5]decan-4-amine], the negative-log IC50 (pIC50) was 7.03.
The same measure, in the same setting: the result for `CC1(N)CCN(c2cnc3nc(Sc4ccnc5c4CCN5)ccc3n2)CC1` [Example 196, 1-(6-((2,3-dihydro-1H-pyrrolo[2,3-b]pyridin-4-yl)thio)pyrido[2,3-b]pyrazin-2-yl)-4-methylpiperidin-4-amine] reads 6.25.
In turn, `C[C@@H]1OCC2(CCN(c3cnc4nc(Sc5ccnc6[nH]ncc56)ccc4n3)CC2)[C@@H]1N` [Example 214, (3S,4S)-8-(6-((1H-pyrazolo[3,4-b]pyridin-4-yl)thio)pyrido[2,3-b]pyrazin-2-yl)-3-methyl-2-oxa-8-azaspiro[4.5]decan-4-amine] showed a pIC50 of 6.52.
Still for that read-out and setting: the result for `Cc1cccc2c1CC1(CCN(c3cnc4nc(Sc5ccnc(N)c5Cl)ccc4n3)CC1)[C@H]2N` [Example 168, (R)-1′-(6-((2-amino-3-chloropyridin-4-yl)thio)pyrido[2,3-b]pyrazin-2-yl)-4-methyl-1,3-dihydrospiro[indene-2,4′-piperidin]-1-amine] reads 7.27; that for `Cc1ccc(Sc2ccc3nc(N4CCC(C)(N)CC4)cnc3n2)c(Cl)n1` [Example 98, 1-(6-((2-chloro-6-methylpyridin-3-yl)thio)pyrido[2,3-b]pyrazin-2-yl)-4-methylpiperidin-4-amine], 6.77.
Consider `C[C@@H]1OCC2(CCN(c3cnc4nc(Sc5ccnc(N6CC[C@H](O)C6)c5Cl)ccc4n3)CC2)[C@@H]1N` [Example 88, (S)-1-(4-((2-((3S,4S)-4-amino-3-methyl-2-oxa-8-azaspiro[4.5]decan-8-yl)pyrido[2,3-b]pyrazin-6-yl)thio)-3-chloropyridin-2-yl)pyrrolidin-3-ol], for which the pIC50 was 6.98.
On to `CC1(N)CCN(c2cnc3nc(Sc4cccc(C#N)c4Cl)ccc3n2)CC1` [Example 35, 3-((2-(4-amino-4-methylpiperidin-1-yl)pyrido[2,3-b]pyrazin-6-yl)thio)-2-chlorobenzonitrile], for which the pIC50 under setting [1] is 6.57.
Turning to `CN(CCN)c1cnc2nc(-c3cccc(Cl)c3Cl)ccc2n1` [Example 29, N1-(6-(2,3-dichlorophenyl)pyrido[2,3-b]pyrazin-2-yl)-N1-methylethane-1,2-diamine], the pIC50 was 6.49.
Molecule `C[C@@H]1OCC2(CCN(c3cnc4nc(Sc5ccnc(N6CC[C@H](CO)C6)c5Cl)ccc4n3)CC2)[C@@H]1N` [Example 87, ((S)-1-(4-((2-((3S,4S)-4-amino-3-methyl-2-oxa-8-azaspiro[4.5]decan-8-yl)pyrido[2,3-b]pyrazin-6-yl)thio)-3-chloropyridin-2-yl)pyrrolidin-3-yl)methanol] gave a pIC50 of 6.90.
Turning to `COc1cnc2c(c1)[C@@H](N)C1(CCN(c3cnc4nc(Sc5ccnc(N)c5Cl)ccc4n3)CC1)C2` [Example 115, (S)-1′-(6-((2-amino-3-chloropyridin-4-yl)thio)pyrido[2,3-b]pyrazin-2-yl)-3-methoxy-5,7-dihydrospiro[cyclopenta[b]pyridine-6,4′-piperidin]-5-amine], under setting [1], the negative logarithm of the IC50 (pIC50) is 7.22.
In turn, `CC1(N)CCN(c2cnc3nc(Sc4cccnc4N)ccc3n2)CC1` [Example 95, 3-((2-(4-amino-4-methylpiperidin-1-yl)pyrido[2,3-b]pyrazin-6-yl)thio)pyridin-2-amine] showed a negative logarithm of the IC50 (pIC50) of 5.33.
Still for that read-out and setting: to `NCC1CC2CCCC(C1)N2c1cnc2nc(Sc3ccnc(N)c3Cl)ccc2n1` (stereo not shown) [Example 101, 4-((2-(3-(aminomethyl)-9-azabicyclo[3.3.1]nonan-9-yl)pyrido[2,3-b]pyrazin-6-yl)thio)-3-chloropyridin-2-amine] belongs 7.25.
Still for that read-out and setting: the result for `CC1(N)CCN(c2cnc3nc(Sc4cccc(Cl)c4Cl)ccc3n2)CC1` [Example 6, 1-(6-((2,3-dichlorophenyl)thio)pyrido[2,3-b]pyrazin-2-yl)-4-methylpiperidin-4-amine] reads 7.24.
Same read-out and setting: to `Cc1ccc2c(c1)[C@H](N)C1(CCN(c3cnc4nc(Sc5ccnc(N)c5Cl)ccc4n3)CC1)C2` [Example 179, (R)-1′-(6-((2-amino-3-chloropyridin-4-yl)thio)pyrido[2,3-b]pyrazin-2-yl)-6-methyl-1,3-dihydrospiro[indene-2,4′-piperidin]-1-amine] belongs 7.10.
`CNC1C[C@@H]2CC[C@@H](C1)N2c1cnc2nc(Sc3ccnc(N)c3Cl)ccc2n1` (stereo partly drawn) [Example 93, (1S,3s,5S)-8-(6-((2-amino-3-chloropyridin-4-yl)thio)pyrido[2,3-b]pyrazin-2-yl)-N-methyl-8-azabicyclo[3.2.1]octan-3-amine] had a pIC50 of 7.31.
Still for that read-out and setting: to `C[C@@H]1OCC2(CCN(c3cnc4nc(Sc5cc(N)nc(Cl)c5Cl)ccc4n3)CC2)[C@@H]1N` [Example 68, (3S,4S)-8-(6-((6-amino-2,3-dichloropyridin-4-yl)thio)pyrido[2,3-b]pyrazin-2-yl)-3-methyl-2-oxa-8-azaspiro[4,5]decan-4-amine] belongs 7.16.
Still for that read-out and setting: the result for `Nc1nccc(Sc2ccc3nc(N4CCC(N)(CO)CC4)cnc3n2)c1Cl` [Example 43, (4-amino-1-(6-((2-amino-3-chloropyridin-4-yl)thio)pyrido[2,3-b]pyrazin-2-yl)piperidin-4-yl)methanol] reads 7.00.
Still for that read-out and setting: to `Nc1nccc(Sc2ccc3nc(N4CCC(N)(Cc5ccccn5)CC4)cnc3n2)c1Cl` [Example 180, 4-((2-(4-amino-4-(pyridin-2-ylmethyl)piperidin-1-yl)pyrido[2,3-b]pyrazin-6-yl)thio)-3-chloropyridin-2-amine] belongs 6.56.
In turn, `N[C@@H]1c2ccccc2CC12CCN(c1cnc3nc(Sc4ccnc(NCCO)c4Cl)ccc3n1)CC2` [Example 110, (S)-2-((4-((2-(1-amino-1,3-dihydrospiro[indene-2,4′-piperidin]-1′-yl)pyrido[2,3-b]pyrazin-6-yl)thio)-3-chloropyridin-2-yl)amino)ethan-1-ol] showed a pIC50 of 7.36.
Regarding `N[C@@H]1c2ccccc2CC12CCN(c1cnc3nc(Sc4cccnc4C(F)(F)F)ccc3n1)CC2` [Example 162, (S)-1′-(6-((2-(trifluoromethyl)pyridin-3-yl)thio)pyrido[2,3-b]pyrazin-2-yl)-1,3-dihydrospiro[indene-2,4′-piperidin]-1-amine], the pIC50 is 7.41.
In turn, `NCC1(F)CCN(c2cnc3nc(Sc4ccnc(N)c4Cl)ccc3n2)CC1` [Example 211, 4-((2-(4-(aminomethyl)-4-fluoropiperidin-1-yl)pyrido[2,3-b]pyrazin-6-yl)thio)-3-chloropyridin-2-amine] showed a negative logarithm of the IC50 (pIC50) of 7.27.
The molecule `CC1(N)CCN(c2cnc3nc(-c4cccc(Cl)c4C(F)(F)F)ccc3n2)CC1` [Example 11, 1-(6-(3-chloro-2-(trifluoromethyl)phenyl)pyrido[2,3-b]pyrazin-2-yl)-4-methylpiperidin-4-amine] gave a pIC50 of 5.64.
Still for that read-out and setting: the result for `C[C@@H]1OCC2(CCN(c3cnc4nc(Sc5ccnc(CO)c5Cl)ccc4n3)CC2)[C@@H]1N` [Example 90, (4-((2-((3S,4S)-4-amino-3-methyl-2-oxa-8-azaspiro[4.5]decan-8-yl)pyrido[2,3-b]pyrazin-6-yl)thio)-3-chloropyridin-2-yl)methanol] reads 6.74.
As for `CC1(CN)CCN(c2cnc3nc(Sc4ccnc(N)c4Cl)ccc3n2)CC1` [Example 12, 4-((2-(4-(aminomethyl)-4-methylpiperidin-1-yl)pyrido[2,3-b]pyrazin-6-yl)thio)-3-chloropyridin-2-amine], the negative logarithm of the IC50 (pIC50) under setting [1] was 7.21.
`NCC1(O)CCN(c2cnc3nc(Sc4ccnc(N)c4Cl)ccc3n2)CC1` [Example 42, 1-(6-((2-amino-3-chloropyridin-4-yl)thio)pyrido[2,3-b]pyrazin-2-yl)-4-(aminomethyl)piperidin-4-ol] showed a pIC50 of 7.02.
Same read-out and setting: to `N#Cc1ccc2c(c1)[C@H](N)C1(CCN(c3cnc4nc(Sc5ccnc(N)c5Cl)ccc4n3)CC1)C2` [Example 111, (R)-1-amino-1′-(6-((2-amino-3-chloropyridin-4-yl)thio)pyrido[2,3-b]pyrazin-2-yl)-1,3-dihydrospiro[indene-2,4′-piperidine]-6-carbonitrile] belongs 7.47.
As for `Nc1nccc(Sc2ccc3nc(N4[C@H]5CC[C@H]4CC(N)C5)cnc3n2)c1Cl` (stereo partly drawn) [Example 52, (1R,3s,5S)-8-(6-((2-amino-3-chloropyridin-4-yl)thio)pyrido[2,3-b]pyrazin-2-yl)-8-azabicyclo[3.2.1]octan-3-amine], under setting [1], the pIC50 was 7.15.
In turn, `CC1(N)CCN(c2cnc3nc(-c4ccnc(N5CC[C@@H](O)C5)c4Cl)ccc3n2)CC1` [Example 46, (R)-1-(4-(2-(4-amino-4-methylpiperidin-1-yl)pyrido[2,3-b]pyrazin-6-yl)-3-chloropyridin-2-yl)pyrrolidin-3-ol] had a negative-log IC50 (pIC50) of 5.54.
As to `Nc1nccc(Sc2ccc3nc(N4CC5CCCC(N)C5C4)cnc3n2)c1Cl` (stereo not shown) [Example 99, 2-(6-((2-amino-3-chloropyridin-4-yl)thio)pyrido[2,3-b]pyrazin-2-yl)octahydro-1H-isoindol-4-amine], the negative-log IC50 (pIC50) is 6.80.
As to `Nc1nccc(Sc2ccc3nc(N4C[C@H]5CC[C@@H](C4)[C@@H]5N)cnc3n2)c1Cl` [Example 199, (1R,5S,8s)-3-(6-((2-amino-3-chloropyridin-4-yl)thio)pyrido[2,3-b]pyrazin-2-yl)-3-azabicyclo[3.2.1]octan-8-amine], the pIC50 is 6.46.
Take `NCC1CCN(c2cnc3nc(-c4cccc(Cl)c4Cl)ccc3n2)C1` (stereo not shown) [Example 28, (1-(6-(2,3-dichlorophenyl)pyrido[2,3-b]pyrazin-2-yl)pyrrolidin-3-yl)methanamine]: the pIC50 is 6.08.
